# Assay results reported in patent US9284283B2, “Macrocyclic compounds for modulating IL-17” (ENSEMBLE THERAPEUTICS CORPORATION, priority 2012, dated 2016).
# Target: T1, biotinylated human IL-17 (binding to IL17R/Fc) (Homo sapiens, UniProt Q16552)
# T1 construct: purchased R&D Systems 317-ILB (IL-17, biotinylated); 177-IR (IL17R/Fc)
# T1 sequence (Q16552 20-155 limits assumed): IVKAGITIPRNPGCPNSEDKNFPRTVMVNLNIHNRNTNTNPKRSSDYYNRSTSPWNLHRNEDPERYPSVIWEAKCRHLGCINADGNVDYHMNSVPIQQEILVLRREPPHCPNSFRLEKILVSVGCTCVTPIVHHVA
# Experiment: IL-17 competition ELISA II (captured IL17R/Fc, biotinylated IL-17)
# Protocol: In this version, a high binding 96-well plate (Costar #9018) was coated with 20 nM of goat anti-human IgG (KPL 01-10-02) in PBS, 100 μL/well, for 30 min at 37° C. followed by 5 min at 4° C. The plate was then washed in PBST (PBS/0.05% Tween-20) on a plate washer, (BioTek ELx450) then blocked with protein-free blocking buffer (Thermo Scientific #37573) in 250 μL/well for 30 min on a shaker at room temperature, and then washed again. IL17R/Fc (R&D Systems #177-IR; 10 nM in PBST, 100 μL/well) was then added to all wells. The plate was then incubated for 30 minutes at room temperature on the shaker.
# While the receptor capture step was underway, compound dilutions were prepared in PBST to a concentration of 1 μM in 1.5 mL tubes. After the receptor capture step, the plate was washed and 50 μL PBST was added to the wells in row B down to row H. Then, 62.5 μL of the 1 μM compound dilutions were added to the wells of row A. From row A, 12.5 μL of the compound solution was removed and added to row B with mixing and this process of 5-fold dilutions was continued, by row, to row G. One of the wells in row A received only PBST (62.5 μL) and this dilution series served as the no competitor control. Then, going up from row G to row A, 50 μL of b-IL-17 (biotinylated human IL-17, R&D Systems #317-ILB; 20 nM) was added to all wells. Row H received 50 μL of PBST and served as the blank row, i.e., no compound and no b-IL-17. The plate was then incubated for 30 minutes at room temperature on the shaker.
# After the wash, 100 μL Streptavidin-Horseradish Peroxidase (SA-HRP) (KPL #14-30-00) at 25 ng/mL in PBST was added to each well in the plate and the plate incubated for 30 minutes at room temperature followed by wash and 100 μL SureBlue™ TMB (KPL #52-00-03). After sufficient color development (approx 3-6 minutes), the reaction was fixed by the addition of 100 μL/well 0.5 N HCl and absorbance was measured at 450 nm on a BioTek Synergy 2 plate reader. The absorbances of ‘no competitor’ control and blank control should not exceed 1.5 A.U. and 0.06 A.U., respectively.
# Data was processed using BioAssay Enterprise v10.1.4 (CambridgeSoft) software. Linear OD λ450 were plotted against log concentration (x) and fitted to a 4-parameter logistic equation. IC50 was calculated using positive ‘no competitor’ control data as an upper limit and blank control as a lower limit in each assay.
row,IC50 [nM],SMILES
1,< 100,C[C@H]1NC(=O)[C@@H](Cc2ccc(NC(=O)[C@H](Cc3ccccc3Cl)NC(=O)OCc3ccccc3)cc2)NC(=O)CC2(CCCC2)CC(=O)NCCCCCNC1=O [Compound 576]
2,< 100,CN1CCOCCOCCNC(=O)[C@@H](Cc2ccc(NC(=O)[C@H](Cc3ccccc3Cl)NC(=O)C(F)(F)c3ccccc3)cc2)NC(=O)CC2(CCCC2)CC1=O [Compound 565]
3,100 to 1000,O=C1CC2(CCCC2)CC(=O)N[C@H](Cc2ccc(NC(=O)[C@@H](NC(=O)c3cccnc3)C3CCCCC3)cc2)C(=O)NCCCCCCCCCN1 [Compound 407]
4,< 100,O=C(Cc1ccccc1)N[C@@H](Cc1ccccc1Cl)C(=O)Nc1ccc(C[C@H]2NC(=O)CC3(CCCC3)CC(=O)OCCNCCNC(=O)[C@@H](Cc3ccccc3)NC2=O)cc1 [Compound 444]
5,100 to 1000,CCC(F)(F)C(=O)N[C@H](C(=O)Nc1ccc(C[C@H]2NC(=O)CC3(CCCC3)CC(=O)OCCCCCNC(=O)CNC2=O)cc1)C1CCCCC1 [Compound 677]
6,< 100,C[C@H]1NC(=O)[C@@H](Cc2ccc(NC(=O)[C@@H](NC(=O)Cc3ccc(N(C)C)cc3)C3CCCCC3)cc2)NC(=O)CC2(CCCC2)CC(=O)N(C)CCOCCN(C)C1=O [Compound 603]
7,1000 to 10000,CN1C(=O)CC2(CCCC2)CC(=O)NCCCCC#CCNC(=O)[C@H]1Cc1ccc(NC(=O)[C@H](Cc2ccccc2Cl)NC(=O)C2(c3ccc(F)cc3)CC2)cc1 [Compound 498]
8,< 100,CN1CCNCCOC(=O)CC2(CCCC2)CC(=O)N[C@H](Cc2ccc(NC(=O)[C@H](Cc3ccccc3Cl)NC(=O)Cc3ccccc3)cc2)C(=O)N[C@H](Cc2ccccc2)C1=O [Compound 445]
9,< 100,CN1CCOCCOCCNC(=O)[C@@H](Cc2ccc(NC(=O)[C@H](CC3CCCCC3)NC(=O)Cc3ccc(N(C)C)cc3)cc2)NC(=O)CC2(CCCC2)CC1=O [Compound 614]
10,< 100,CN1CCOCCOCCNC(=O)[C@@H](Cc2ccc(NC(=O)[C@H](Cc3ccccc3Cl)NC(=O)[C@H](O)c3ccccc3)cc2)NC(=O)CC2(CCCC2)CC1=O [Compound 581]
11,< 100,O=C1CC2(CCCC2)CC(=O)N[C@H](Cc2ccc(NC(=O)[C@H](Cc3ccc(F)cc3Cl)NC(=O)C(F)(F)c3ccccc3)cc2)C(=O)NCCOCCOCCN1 [Compound 530]
12,< 100,C[C@H]1NC(=O)[C@@H](Cc2ccc(NC(=O)[C@H](Cc3ccccc3Cl)NC(=O)C(F)(F)c3ccccc3)cc2)NC(=O)C[C@@H](Cc2ccccc2)NC(=O)CCNC(=O)CCNC1=O [Compound 634]
13,< 100,O=C1CC2(CCCC2)CC(=O)N[C@H](Cc2ccc(NC(=O)[C@H](Cc3ccccc3Cl)NC(=O)Cc3ccc(CO)cc3)cc2)C(=O)NC/C=C/CCCCCN1 [Compound 365]
14,< 100,O=C1CC2(CCCC2)CC(=O)N[C@H](Cc2ccc(NC(=O)[C@H](Cc3ccccc3Cl)NC(=O)C(F)(F)c3ccc(F)cc3)cc2)C(=O)NCCOCCOCCN1 [Compound 559]
15,< 100,C[C@H]1NC(=O)[C@@H](Cc2ccc(NC(=O)[C@@H](NC(=O)Cc3ccc(N(C)C)cc3)C3CCCCC3)cc2)NC(=O)CC2(CCCC2)CC(=O)N(C)CCN(C)CCN(C)C1=O [Compound 605]
16,< 100,C[C@H]1NC(=O)[C@@H](Cc2ccc(NC(=O)[C@H](Cc3ccccc3Cl)NC(=O)C(=O)c3ccccc3)cc2)NC(=O)CC2(CCCC2)CC(=O)N(C)CCN(C)CCN(C)C1=O [Compound 573]
17,< 100,NC(=O)c1ccccc1C[C@H]1NC(=O)[C@@H](Cc2ccc(NC(=O)[C@H](Cc3ccccc3Cl)NC(=O)Cc3ccc(CO)cc3)cc2)NC(=O)CC2(CCCC2)CC(=O)N[C@H](C(=O)O)CCCCNC1=O [Compound 659]
18,< 100,O=C1CC2(CCCC2)CC(=O)N[C@H](Cc2ccc(NC(=O)[C@H](Cc3ccccc3Cl)NC(=O)c3cccnc3)cc2)C(=O)N[C@@H](CO)C(=O)NCCCC[C@@H](C(=O)O)N1 [Compound 451]

row,IC50 [nM],SMILES
1,< 100,C[C@H]1NC(=O)[C@@H](Cc2ccc(NC(=O)[C@H](Cc3ccccc3Cl)NC(=O)C(=O)c3ccccc3)cc2)NC(=O)CC2(CCCC2)CC(=O)N(C)CCOCCN(C)C1=O [Compound 594]
2,100 to 1000,O=C1CC2(CCCC2)CC(=O)N[C@H](Cc2ccc(NC(=O)[C@@H](NC(=O)Cc3ccc(F)cc3)C3CCCCC3)cc2)C(=O)NCCCCN1 [Compound 410]
3,< 100,O=C1CC2(CCCC2)CC(=O)N[C@H](Cc2ccc(NC(=O)[C@H](Cc3ccccc3Cl)NC(=O)C3(c4ccc(F)cc4)CC3)cc2)C(=O)N[C@H](CO)C(=O)NCCCCCN1 [Compound 482]
4,< 100,CN1CCOCCOCCN(C)C(=O)[C@@H](Cc2ccc(NC(=O)[C@H](Cc3ccccc3Cl)NC(=O)Cc3ccc(F)cc3)cc2)NC(=O)CC2(CCCC2)CC1=O [Compound 590]
5,< 100,O=C1CC2(CCCC2)CC(=O)N[C@H](Cc2ccc(NC(=O)[C@H](Cc3ccccc3Cl)NC(=O)NCc3ccccc3)cc2)C(=O)NCCOCCOCCN1 [Compound 463]
6,100 to 1000,O=C1CC2(CCCC2)CC(=O)N[C@H](Cc2ccc(NC(=O)[C@@H](NC(=O)c3ccncc3)C3CCCCC3)cc2)C(=O)N[C@H](Cc2ccccn2)C(=O)NCCCCCN1 [Compound 436]
7,100 to 1000,CN1CCCCCNC(=O)CC2(CCCC2)CC(=O)N(C)[C@H](Cc2ccc(N(C)C(=O)[C@H](Cc3ccccc3Cl)N(C)C(=O)Cc3ccccc3)cc2)C(=O)N(C)CC1=O [Compound 363]
8,< 100,O=C1CNC(=O)[C@@H](Cc2ccc(NC(=O)[C@@H](NC(=O)C(F)F)C3CCCCC3)cc2)NC(=O)CC2(CCCC2)CC(=O)OCCCCCN1 [Compound 672]
9,< 100,COC(=O)N[C@@H](Cc1ccccc1Cl)C(=O)Nc1ccc(C[C@H]2NC(=O)CC3(CCCC3)CC(=O)N(C)CCCCCN(C)C(=O)[C@@H](C)NC2=O)cc1 [Compound 570]
10,< 100,CN1C(=O)CC2(CCCC2)CC(=O)NCCOCCOCCNC(=O)[C@H]1Cc1ccc(NC(=O)[C@H](Cc2ccccc2Cl)NC(=O)Cc2ccc(F)cc2)cc1 [Compound 477]
11,100 to 1000,COC(=O)N[C@H](C(=O)Nc1ccc(C[C@H]2NC(=O)CC3(CCCC3)CC(=O)N(C)CCCCCN(C)C(=O)[C@@H](C)NC2=O)cc1)C1CCCCC1 [Compound 625]
12,< 100,O=C1CC2(CCCC2)CC(=O)N[C@H](Cc2ccc(NC(=O)[C@H](Cc3ccccc3Cl)NC(=O)Cc3ccc(CO)cc3)cc2)C(=O)NCCCN1 [Compound 401]
13,< 100,C[C@H]1NC(=O)[C@@H](Cc2ccc(NC(=O)[C@H](Cc3ccccc3Cl)Nc3nc4ccccc4o3)cc2)NC(=O)CC2(CCCC2)CC(=O)N(C)CCOCCN(C)C1=O [Compound 654]
14,< 100,O=C1CNC(=O)[C@@H](Cc2ccc(NC(=O)[C@H](Cc3ccccc3Cl)NC(=O)C(F)(F)c3ccccc3)cc2)NC(=O)CC2(CCCC2)CC(=O)OCCCCCN1 [Compound 674]
15,< 100,CC(=O)N[C@@H](Cc1ccccc1Cl)C(=O)Nc1ccc(C[C@H]2NC(=O)CC3(CCCC3)CC(=O)OCCCCCNC(=O)CNC2=O)cc1 [Compound 676]
16,< 100,CN1CCCC[C@@H](C(=O)O)N(C)C(=O)CC2(CCCC2)CC(=O)N[C@H](Cc2ccc(NC(=O)[C@@H](NC(=O)C(F)(F)c3ccccc3)C3CCCCC3)cc2)C(=O)N[C@H](CCC(N)=O)C1=O [Compound 668]
17,< 100,C[C@H]1NC(=O)[C@@H](Cc2ccc(NC(=O)[C@H](Cc3ccccc3Cl)NC(=O)Cc3ccc(F)cc3)cc2)NC(=O)CC2(CCCCC2)NC(=O)CCCCCCNC1=O [Compound 621]
18,100 to 1000,C[C@H]1NC(=O)[C@@H](Cc2cccc(NC(=O)[C@H](Cc3ccccc3Cl)NC(=O)Cc3ccc(F)cc3)c2)NC(=O)CC2(CCCC2)CC(=O)NCCCCCNC1=O [Compound 492]

row,SMILES,IC50 [nM]
1,C[C@H]1NC(=O)[C@@H](Cc2ccc(NC(=O)[C@H](Cc3ccccc3Cl)NC(=O)Oc3ccccc3)cc2)NC(=O)CC2(CCCC2)CC(=O)N(C)CCN(C)CCN(C)C1=O [Compound 574],< 100
2,C[C@H]1NC(=O)[C@@H](Cc2ccc(NC(=O)[C@H](Cc3ccccc3Cl)NC(=O)Oc3ccc(F)cc3)cc2)NC(=O)CC2(CCCC2)CC(=O)NCCCCCNC1=O [Compound 575],< 100
3,C[C@H]1NC(=O)[C@@H](Cc2ccc(NC(=O)[C@H](Cc3ccccc3Cl)NC(=O)Oc3ccccc3)cc2)NC(=O)CC2(CCCC2)CC(=O)NCCCCCNC1=O [Compound 586],< 100
